# “And” between values parts separate entries of the source, which are not always exact repeats. Equal values may be shown once. Toxic doses and inconclusive results are not listed.
# Test system: CD2F1 mice, L1210 leukemia ip, survival T/C
# Assay: NCI In Vivo Anticancer Drug Screen. Data for tumor model L1210 Leukemia (intraperitoneal) in CD2F1 (CDF1) mice
# Details: higher = longer survival
# Outline: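 Read-out first: treated-group measurement over vehicle-control measurement, expressed as a ratio. Animals bore a transplanted tumor line and were dosed with compound or vehicle.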
# [1] = endpoint: mean survival time, dose: 75.0 mg/kg/injection, schedule: Q01DX001 (ip), vehicle: saline
# [2] = endpoint: mean survival time, dose: 100.0 mg/kg/injection, schedule: Q04DX003 (ip), vehicle: saline with Tween-80
# [3] = endpoint: mean survival time, dose: 200.0 mg/kg/injection, schedule: Q04DX003 (ip), vehicle: saline with Tween-80
# [4] = endpoint: mean survival time, dose: 400.0 mg/kg/injection, schedule: Q04DX003 (ip), vehicle: saline with Tween-80
# [5] = endpoint: mean survival time, dose: 6.25 mg/kg/injection, schedule: Q01DX009 (ip), vehicle: saline sonified
# [6] = endpoint: mean survival time, dose: 12.5 mg/kg/injection, schedule: Q01DX009 (ip), vehicle: saline sonified
# [7] = endpoint: mean survival time, dose: 25.0 mg/kg/injection, schedule: Q01DX009 (ip), vehicle: saline sonified
# [8] = endpoint: mean survival time, dose: 100.0 mg/kg/injection, schedule: Q01DX009 (ip), vehicle: Klucel (hydroxypropylcellulose) (HPC)
# [9] = endpoint: mean survival time, dose: 100.0 mg/kg/injection, schedule: Q04DX002 (ip), vehicle: saline with Tween-80
# [10] = endpoint: mean survival time, dose: 200.0 mg/kg/injection, schedule: Q04DX002 (ip), vehicle: saline with Tween-80
# [11] = endpoint: mean survival time, dose: 100.0 mg/kg/injection, schedule: Q01DX001 (ip), vehicle: saline with Tween-80
# [12] = endpoint: mean survival time, dose: 200.0 mg/kg/injection, schedule: Q01DX001 (ip), vehicle: saline with Tween-80
# [13] = endpoint: mean survival time, dose: 400.0 mg/kg/injection, schedule: Q01DX001 (ip), vehicle: saline with Tween-80
# [14] = endpoint: mean survival time, dose: 400.0 mg/kg/injection, schedule: Q04DX002 (ip), vehicle: saline with Tween-80
# [15] = endpoint: mean survival time, dose: 12.5 mg/kg/injection, schedule: Q01DX009 (ip), vehicle: Klucel (hydroxypropylcellulose) (HPC)
# [16] = endpoint: mean survival time, dose: 25.0 mg/kg/injection, schedule: Q01DX009 (ip), vehicle: Klucel (hydroxypropylcellulose) (HPC)
# [17] = endpoint: mean survival time, dose: 50.0 mg/kg/injection, schedule: Q01DX009 (ip), vehicle: Klucel (hydroxypropylcellulose) (HPC)
smiles,measurement,setting,value
Cc1cc(-c2ccccc2)cc(=O)[nH]1,T/C,"endpoint: mean survival time, dose: 100.0 mg/kg/injection, schedule: Q01DX001 (ip), vehicle: other",92 % of control
same,T/C,"endpoint: mean survival time, dose: 200.0 mg/kg/injection, schedule: Q01DX001 (ip), vehicle: other",92 % of control
same,T/C,"endpoint: mean survival time, dose: 400.0 mg/kg/injection, schedule: Q01DX001 (ip), vehicle: other",91 % of control
O=C(O)CCC(NC(=O)c1ccccc1)C(=O)O (stereo not given),T/C,"endpoint: mean survival time, dose: 100.0 mg/kg/injection, schedule: Q01DX001 (ip), vehicle: Klucel (hydroxypropylcellulose) (HPC)",96 % of control
same,T/C,"endpoint: mean survival time, dose: 200.0 mg/kg/injection, schedule: Q01DX001 (ip), vehicle: Klucel (hydroxypropylcellulose) (HPC)",96 % of control
same,T/C,"endpoint: mean survival time, dose: 400.0 mg/kg/injection, schedule: Q01DX001 (ip), vehicle: Klucel (hydroxypropylcellulose) (HPC)",100 % of control
CC(=O)Nc1ccc2cc3ccc(NC(C)=O)cc3nc2c1,T/C,"endpoint: mean survival time, dose: 100.0 mg/kg/injection, schedule: Q04DX002 (ip), vehicle: saline",98 % of control
same,T/C,"endpoint: mean survival time, dose: 200.0 mg/kg/injection, schedule: Q04DX002 (ip), vehicle: saline",98 % of control
same,T/C,"endpoint: mean survival time, dose: 400.0 mg/kg/injection, schedule: Q04DX002 (ip), vehicle: saline",98 % of control
NC(=O)c1c[n+](Cc2ccccc2)ccn1,T/C,[1],104 % of control
COc1ccc(C(O)(c2ccccc2)C(C)O)cc1 (stereo not given),T/C,[2],101 % of control
same,T/C,[3],98 % of control
same,T/C,[4],98 % of control
CO[C@@]12[C@@H]3N[C@@H]3CN1C1=C(C(=O)C(Nc3nc(C)c(C)s3)=C(C)C1=O)[C@@H]2COC(N)=O,T/C,"endpoint: median survival time, dose: 1.5 mg/kg/injection, schedule: Q01DX001 (ip), vehicle: distilled water + Tween-80",98 % of control and 101 % of control
same,T/C,"endpoint: median survival time, dose: 3.0 mg/kg/injection, schedule: Q01DX001 (ip), vehicle: distilled water + Tween-80",120 % of control and 101 % of control and 102 % of control
same,T/C,"endpoint: median survival time, dose: 6.0 mg/kg/injection, schedule: Q01DX001 (ip), vehicle: distilled water + Tween-80",123 % of control and 101 % of control (2×)
same,T/C,"endpoint: median survival time, dose: 12.0 mg/kg/injection, schedule: Q01DX001 (ip), vehicle: distilled water + Tween-80",98 % of control and 101 % of control
same,T/C,"endpoint: median survival time, dose: 24.0 mg/kg/injection, schedule: Q01DX001 (ip), vehicle: distilled water + Tween-80",121 % of control and 102 % of control and 106 % of control
O=Cc1[nH]c(=S)[nH]c(=O)c1Cc1cccc2ccccc12,T/C,[2],96 % of control
same,T/C,[3],95 % of control
same,T/C,[4],102 % of control
COc1ccc(OC)c(C2N(C)CCCN2C)c1,T/C,[5],90 % of control
same,T/C,"endpoint: mean survival time, dose: 6.25 mg/kg/injection, schedule: Q04DX003 (ip), vehicle: saline sonified",100 % of control
same,T/C,[6],88 % of control
same,T/C,"endpoint: mean survival time, dose: 12.5 mg/kg/injection, schedule: Q04DX003 (ip), vehicle: saline sonified",101 % of control
same,T/C,[7],103 % of control
same,T/C,"endpoint: mean survival time, dose: 25.0 mg/kg/injection, schedule: Q04DX003 (ip), vehicle: saline sonified",100 % of control
COc1cc2c(cc1OC)C(CCNC(=O)CCCO)NCC2 (stereo not given),T/C,"endpoint: mean survival time, dose: 100.0 mg/kg/injection, schedule: Q01DX001 (ip), vehicle: saline sonified",97 % of control
same,T/C,"endpoint: mean survival time, dose: 100.0 mg/kg/injection, schedule: Q01DX009 (ip), vehicle: saline sonified",98 % of control
same,T/C,"endpoint: mean survival time, dose: 200.0 mg/kg/injection, schedule: Q01DX001 (ip), vehicle: saline sonified",100 % of control
same,T/C,"endpoint: mean survival time, dose: 200.0 mg/kg/injection, schedule: Q01DX009 (ip), vehicle: saline sonified",95 % of control
same,T/C,"endpoint: mean survival time, dose: 400.0 mg/kg/injection, schedule: Q01DX001 (ip), vehicle: saline sonified",100 % of control
same,T/C,"endpoint: mean survival time, dose: 400.0 mg/kg/injection, schedule: Q01DX009 (ip), vehicle: saline sonified",91 % of control
Cc1cccc(CC(F)(F)F)c1,T/C,[2],102 % of control
same,T/C,[3],100 % of control
same,T/C,[4],89 % of control
c1ccc(N/N=C2/CSCc3ccccc32)cc1,T/C,[8],98 % of control
same,T/C,"endpoint: mean survival time, dose: 200.0 mg/kg/injection, schedule: Q01DX009 (ip), vehicle: Klucel (hydroxypropylcellulose) (HPC)",93 % of control
same,T/C,"endpoint: mean survival time, dose: 400.0 mg/kg/injection, schedule: Q01DX009 (ip), vehicle: Klucel (hydroxypropylcellulose) (HPC)",93 % of control
CCCCOC(=O)COc1c(Cl)ccc(Cl)c1Cl,T/C,[9],102 % of control
same,T/C,[10],95 % of control
O=C(C1CO1)C(Cl)(Cl)Cl (stereo not given),T/C,"endpoint: median survival time, dose: 12.0 mg/kg/injection, schedule: Q01DX009 (ip), vehicle: saline",111 % of control
same,T/C,"endpoint: median survival time, dose: 25.0 mg/kg/injection, schedule: Q01DX009 (ip), vehicle: saline",108 % of control
same,T/C,"endpoint: median survival time, dose: 50.0 mg/kg/injection, schedule: Q01DX009 (ip), vehicle: saline",117 % of control
CCOC(=O)C(Cc1ccc(CC(NC(C)=O)(C(=O)OCC)C(=O)OCC)cc1)(NC(C)=O)C(=O)OCC,T/C,"endpoint: mean survival time, dose: 12.5 mg/kg/injection, schedule: Q01DX009 (ip), vehicle: other",96 % of control
same,T/C,"endpoint: mean survival time, dose: 25.0 mg/kg/injection, schedule: Q01DX009 (ip), vehicle: other",94 % of control
same,T/C,"endpoint: mean survival time, dose: 50.0 mg/kg/injection, schedule: Q01DX009 (ip), vehicle: other",97 % of control
same,T/C,"endpoint: mean survival time, dose: 100.0 mg/kg/injection, schedule: Q01DX009 (ip), vehicle: other",91 % of control
same,T/C,"endpoint: mean survival time, dose: 200.0 mg/kg/injection, schedule: Q01DX009 (ip), vehicle: other",92 % of control
O=S(=O)(Cc1ccccc1)CS(=O)(=O)Cc1ccccc1,T/C,[11],98 % of control
same,T/C,[12],97 % of control
same,T/C,[13],86 % of control
CCN(CC)CCN(C)C(O)(C(=O)c1ccccc1)C1CCCCC1 (stereo not given),T/C,[1],105 % of control
same,T/C,"endpoint: mean survival time, dose: 150.0 mg/kg/injection, schedule: Q01DX001 (ip), vehicle: saline",102 % of control
same,T/C,"endpoint: mean survival time, dose: 300.0 mg/kg/injection, schedule: Q01DX001 (ip), vehicle: saline",100 % of control
Brc1cn[nH]c1Br,T/C,[2],98 % of control
same,T/C,[3],104 % of control
same,T/C,[4],88 % of control
CCOCC(=O)CC(C)C,T/C,"endpoint: mean survival time, dose: 100.0 mg/kg/injection, schedule: Q04DX003 (ip), vehicle: other",100 % of control
same,T/C,"endpoint: mean survival time, dose: 200.0 mg/kg/injection, schedule: Q04DX003 (ip), vehicle: other",91 % of control
same,T/C,"endpoint: mean survival time, dose: 400.0 mg/kg/injection, schedule: Q04DX003 (ip), vehicle: other",100 % of control
CC(SC(=S)N(C)C)C(=O)O (stereo not given),T/C,[2],96 % of control
same,T/C,[3],101 % of control
same,T/C,[4],101 % of control
O=[N+]([O-])O.[Cr+3].[NH2-].[NH2-].[NH2-].[NH2-].[NH2-].[NH2-],T/C,[5],88 % of control
same,T/C,[6],97 % of control
same,T/C,[7],90 % of control
CCCCOC(=O)c1c(C(=O)OCCCC)c(-c2ccccc2)c2c(c1-c1ccccc1)-c1cccc3cccc-2c13,T/C,[9],97 % of control
same,T/C,[10],86 % of control
same,T/C,[14],90 % of control
CN(C)S(=O)(=O)c1ccccc1C1(O)c2ccccc2-c2ccccc21,T/C,"endpoint: mean survival time, dose: 50.0 mg/kg/injection, schedule: Q01DX009 (ip), vehicle: saline with Tween-80",87 % of control
same,T/C,"endpoint: mean survival time, dose: 100.0 mg/kg/injection, schedule: Q01DX009 (ip), vehicle: saline with Tween-80",87 % of control
same,T/C,[2],93 % of control
same,T/C,[3],86 % of control
CC(=O)OCC(C)CCC(C)C(C)C1C(C)CC2C3CC=C4CC(OC(C)=O)CCC4(C)C3CCC21C (stereo not given),T/C,[15],104 % of control
same,T/C,[16],101 % of control
same,T/C,[17],101 % of control
CN(C(=S)S(=O)(=O)C12CC3CC(CC(C3)C1)C2)c1ccccc1,T/C,"endpoint: mean survival time, dose: 3.12 mg/kg/injection, schedule: Q01DX009 (ip), vehicle: Klucel (hydroxypropylcellulose) (HPC)",94 % of control and 96 % of control and 105 % of control
same,T/C,"endpoint: mean survival time, dose: 6.25 mg/kg/injection, schedule: Q01DX009 (ip), vehicle: Klucel (hydroxypropylcellulose) (HPC)",100 % of control (2×) and 105 % of control
same,T/C,[15],100 % of control and 102 % of control and 107 % of control
same,T/C,[16],98 % of control and 102 % of control and 107 % of control
same,T/C,[17],96 % of control and 104 % of control and 105 % of control
same,T/C,[8],117 % of control and 96 % of control and 102 % of control
c1ccc(Oc2ccc(Nc3c4ccccc4nc4ccccc34)cc2)cc1,T/C,[9],101 % of control
same,T/C,[10],101 % of control
same,T/C,[14],104 % of control
Cc1[nH]c(=O)c(C(=O)O)c(C)c1[N+](=O)[O-],T/C,[2],96 % of control
same,T/C,[3],94 % of control
same,T/C,[4],96 % of control
CC[C@@]1(O)C(=O)OCc2c1cc1n(c2=O)Cc2cc3c(CN(C)C)c(O)ccc3nc2-1,T/C,"endpoint: median survival time, dose: 5.0 mg/kg/injection, schedule: Q04DX002 (ip), vehicle: water",119 % of control
same,T/C,"endpoint: median survival time, dose: 20.0 mg/kg/injection, schedule: Q04DX002 (ip), vehicle: water",183 % of control
same,T/C,"endpoint: median survival time, dose: 40.0 mg/kg/injection, schedule: Q04DX002 (ip), vehicle: water",264 % of control
CSc1ncc(C=O)c(N)n1,T/C,[11],96 % of control
same,T/C,[12],97 % of control
same,T/C,[13],95 % of control

# From PubChem BioAssay AID256 (DTP/NCI, 2004)
